Laboratory results taken from DBAASP.
In brackets after ≈: the same amount, converted by molar mass.

What was measured:
Test in all cases: ≥ marks a high value that may be exact or a test limit, other limits are often not marked, values filed in µg/mL are converted to µM
[1] = test system: Klebsiella pneumoniae WGLW2
[2] = test system: Pseudomonas aeruginosa PA14
[3] = test system: Staphylococcus aureus ATCC 29231
[4] = test system: Candida albicans ATCC 10231
Aspergillus niger = test system: Aspergillus niger
Candida albicans = test system: Candida albicans
Fusarium oxysporum = test system: Fusarium oxysporum
Trichoderma harzianum = test system: Trichoderma harzianum
Kluyveromyces marxianus = test system: Kluyveromyces marxianus
Pachysolen tannophilus = test system: Pachysolen tannophilus
Pseudomonas aeruginosa = test system: Pseudomonas aeruginosa
Staphylococcus aureus = test system: Staphylococcus aureus
[5] = test system: Staphylococcus aureus ATCC 12493
[6] = test system: Klebsiella pneumoniae ATCC BAA-2342
[7] = test system: Klebsiella pneumoniae ATCC 43816
[8] = test system: Escherichia coli ATCC BAA-2340
[9] = test system: Enterococcus faecalis NCTC 12697
[10] = test system: Staphylococcus aureus NCTC 10788
[11] = test system: Staphylococcus aureus ATCC 6538
[12] = test system: Escherichia coli NCTC 10418
[13] = test system: Klebsiella pneumoniae ATCC BAA-1705
[14] = test system: Pseudomonas aeruginosa ATCC 27853
[15] = test system: Pseudomonas aeruginosa ATCC 9027
[16] = test system: Candida albicans NCYC 1467
[17] = test system: Escherichia coli ATCC 8739
[18] = test system: Staphylococcus aureus NCTC 12981
[19] = test system: Klebsiella pneumoniae LMG 20218
[20] = test system: Acinetobacter baumannii LMG 01041
[21] = test system: Klebsiella aerogenes LMG 02094
[22] = test system: Pseudomonas aeruginosa LMG 6395
[23] = test system: Escherichia coli LMG 15862
[24] = test system: Staphylococcus epidermidis C621
[25] = test system: Pseudomonas aeruginosa Z61
[26] = test system: Pseudomonas aeruginosa K799
Aeromonas salmonicida = test system: Aeromonas salmonicida
Vibrio anguillarum = test system: Vibrio anguillarum
[27] = test system: Salmonella enterica subsp. enterica serovar Typhimurium ATCC 14028s
[28] = test system: Salmonella enterica serovar typhimurium MS7953s

In the case of CC[C@H](C)[C@H](NC(=O)[C@H](CCCCN)NC(=O)[C@H](CCCCN)NC(=O)[C@@H](N)CC(C)C)C(=O)NCC(=O)N[C@@H](CCCCN)C(=O)N[C@@H](CCCCN)C(=O)N[C@H](C(=O)N[C@@H](Cc1c[nH]c2ccccc12)C(=O)N[C@@H](CCCN=C(N)N)C(=O)N[C@H](C(=O)NCC(=O)N[C@@H](Cc1c[nH]c2ccccc12)C(=O)N[C@@H](CC(N)=O)C(=O)N[C@H](C(=O)N[C@@H](CCCN=C(N)N)C(=O)N[C@@H](CC(=O)O)C(=O)N[C@@H](C)C(=O)N[C@H](C(=O)N[C@H](C(=O)N[C@@H](CCC(N)=O)C(=O)O)[C@@H](C)CC)[C@@H](C)O)[C@@H](C)O)C(C)C)[C@@H](C)CC [LKKIGKKIWRVGWNTRDATIQ], the MIC [1] is reported as at least 51 µM, the MIC [2] is reported as at least 51 µM and the MIC [3] is reported as at least 51 µM. It also gave an MIC [4] of over 51 µM.

For CC[C@H](C)[C@H](NC(=O)[C@H](CC(C)C)NC(=O)[C@@H](NC(=O)[C@@H](N)CC(=O)O)[C@@H](C)O)C(=O)NCC(=O)N[C@@H](CO)C(=O)N[C@H]1CSSC[C@@H]2NC(=O)[C@H](Cc3cnc[nH]3)NC(=O)CNC(=O)CNC(=O)[C@H](CCCCN)NC(=O)[C@H](Cc3ccc(O)cc3)NC(=O)CNC(=O)[C@H](CCCN=C(N)N)NC(=O)[C@H](CCCN=C(N)N)NC(=O)[C@H](CCCCN)NC(=O)[C@@H]3CSSC[C@@H](C(=O)N[C@@H](CCC(=O)O)C(=O)O)NC(=O)[C@H](Cc4c[nH]c5ccccc45)NC(=O)[C@H](CSSC[C@H](NC(=O)[C@H](CC(=O)O)NC(=O)[C@H](CO)NC(=O)[C@H]([C@@H](C)O)NC(=O)[C@H](Cc4ccc(O)cc4)NC(=O)[C@H](CC(N)=O)NC(=O)[C@H]([C@@H](C)O)NC(=O)[C@H](C)NC(=O)CNC(=O)[C@H](Cc4c[nH]c5ccccc45)NC(=O)[C@H](C(C)C)NC1=O)C(=O)N[C@@H](CC(N)=O)C(=O)N[C@@H](C)C(=O)N[C@@H](CCC(=O)O)C(=O)N3)NC(=O)[C@H](CC(N)=O)NC(=O)[C@H](C(C)C)NC(=O)[C@H](CC(N)=O)NC(=O)[C@H](CC(C)C)NC(=O)[C@H](Cc1ccccc1)NC(=O)[C@H](CO)NC(=O)CNC2=O [DTLIGSCVWGATNYTSDCNAECKRRGYKGGHCGSFLNVNCWCE], the MIC (Aspergillus niger) was 2.1 µM (≈ 9.9 µg/mL), the MIC (Candida albicans) was 8.5 µM (≈ 40.1 µg/mL) and the MIC (Fusarium oxysporum) was 16.9 µM (≈ 79.7 µg/mL). It also gave an MIC (Trichoderma harzianum) of 4.2 µM (≈ 19.8 µg/mL), an MIC (Kluyveromyces marxianus) of 8.5 µM (≈ 40.1 µg/mL) and an MIC (Pachysolen tannophilus) of 8.5 µM (≈ 40.1 µg/mL).

CC[C@H](C)[C@H](NC(=O)CNC(=O)CNC(=O)[C@H](C)NC(=O)[C@@H](NC(=O)[C@H](CCCCN)NC(=O)[C@@H]1CCCN1C(=O)[C@@H](NC(=O)[C@H](CC(C)C)NC(=O)[C@H](CO)NC(=O)[C@H](CC(C)C)NC(=O)[C@@H](N)Cc1ccccc1)[C@@H](C)CC)[C@@H](C)CC)C(=O)N[C@@H](C)C(=O)N[C@@H](C)C(=O)N[C@@H](CC(C)C)C(=O)N[C@H](C(=O)N[C@@H](CCCCN)C(=O)N[C@@H](CC(N)=O)C(=O)N[C@@H](CC(C)C)C(N)=O)C(C)C [FLSLIPKIAGGIAALVKNL] was tested, and the MIC (Pseudomonas aeruginosa) was over 512 µM, the MIC (Staphylococcus aureus) was 8 µM (≈ 15.5 µg/mL) and the MIC [5] was 4 µM (≈ 7.75 µg/mL). It also gave an MIC [6] of at least 128 µM, an MIC [7] of at least 64 µM and an MIC [8] of at least 64 µM. It also gave an MIC [9] of at least 32 µM, an MIC [10] of 4 µM (≈ 7.75 µg/mL) and an MIC [11] of 2 µM (≈ 3.87 µg/mL). It also gave an MIC [12] of at least 32 µM, an MIC [13] of at least 256 µM and an MIC [14] of 128 µM (≈ 248 µg/mL). For the same compound, the MIC [15] was 256 µM (≈ 496 µg/mL), the MIC [16] was 8 µM (≈ 15.5 µg/mL) and the MIC [17] was at least 128 µM.

NC(=O)[C@H](CCCN=C(N)N)NC(=O)[C@@H]1CCCN1C(=O)[C@@H]1CCCN1C(=O)[C@H](Cc1c[nH]c2ccccc12)NC(=O)[C@@H]1CCCN1C(=O)[C@@H](N)CCCN=C(N)N [RPWPPR] gave an MIC [18] of at least 158 µM and an MIC [12] of at least 158 µM.

Work on CC[C@H](C)[C@H](NC(=O)[C@H](CCCN=C(N)N)NC(=O)[C@H](CCC(N)=O)NC(=O)[C@@H](NC(=O)[C@@H](NC(=O)[C@@H](N)CCCCN)[C@@H](C)CC)C(C)C)C(=O)N[C@@H](CCCCN)C(=O)N[C@@H](CCCCN)C(=O)N[C@@H](Cc1c[nH]c2ccccc12)C(=O)N[C@@H](CC(C)C)C(=O)N[C@@H](CCCN=C(N)N)C(N)=O [KIVQRIKKWLR] yielded an MIC [19] of at least 32 µM, an MIC [20] of at least 128 µM and an MIC [21] of at least 256 µM. For the same compound, the MIC [22] was 16 µM (≈ 23.5 µg/mL) and the MIC [23] was 16 µM (≈ 23.5 µg/mL).

CC(C)C[C@H](NC(=O)[C@H](C)NC(=O)[C@H](C)NC(=O)[C@H](CCCCN)NC(=O)CNC(=O)[C@@H](NC(=O)[C@H](Cc1cnc[nH]1)NC(=O)[C@H](CCCCN)NC(=O)CNC(=O)[C@@H](NC(=O)[C@H](Cc1cnc[nH]1)NC(=O)[C@H](C)NC(=O)[C@H](C)NC(=O)[C@H](CCCCN)NC(=O)[C@H](CCCCN)NC(=O)[C@H](Cc1ccccc1)NC(=O)[C@H](Cc1ccccc1)NC(=O)[C@H](CO)NC(=O)CNC(=O)[C@H](Cc1c[nH]c2ccccc12)NC(=O)CN)C(C)C)C(C)C)C(=O)NCC(=O)N[C@@H](C)C(=O)N[C@@H](C)C(=O)N[C@@H](C)C(=O)N[C@@H](CCCN=C(N)N)C(=O)N[C@@H](CCCN=C(N)N)C(=O)N[C@@H](CCCN=C(N)N)C(=O)N[C@@H](CCCCN)C(=O)O [GWGSFFKKAAHVGKHVGKAALGAAARRRK] was tested, and the MIC [24] was 5.22 µM (≈ 16 µg/mL), the MIC [25] was 5.22 µM (≈ 16 µg/mL) and the MIC [26] was 5.22 µM (≈ 16 µg/mL). For the same compound, the MIC (Aeromonas salmonicida) was 0.326 µM (≈ 1 µg/mL), the MIC (Vibrio anguillarum) was 10.4 µM (≈ 32 µg/mL) and the MIC [27] was 5.22 µM (≈ 16 µg/mL). It also gave an MIC [28] of 0.163 µM (≈ 0.5 µg/mL).
